The text below walks through data of patent publication US20200237863A1, “Combination Therapy of Fractionated Radiation and SAPC-DOPS for the Treatment of Tumors” (University of Cincinnati, priority 2017, published 2020).

In one assay the test system is cfPac-1 cells. In words: Flow cytometric analysis of Annexin V-FITC binding (surface PS) after irradiation. As to conditions: cfPac-1 cells irradiated at 10 Gy, 10 μM Z-VAD-fmk, assessed 24 hr later. Format: cell-based, human. The procedure: Unless otherwise stated, cells at 60-80% confluency were irradiated and then, after the appropriate time, were trypsinized, resuspended in complete medium, spun down, and washed once with PBS then resuspended in annexin V staining buffer. Cells (1×10^5) were incubated at room temperature in the dark for 15 minutes in a final volume of 100 μl containing 10 μl Annexin V-FITC (Invitrogen, Carlsbad, Calif.) and 2 μg/ml propidium iodide (PI, BD-Pharmingen, Eugene, Oreg.). Annexin V-FITC binding was measured by flow cytometry after adding 400 μl of annexin V binding buffer, using a BD Fortessa. Data was analyzed with BD FACS Diva. For quantifying the annexin V-FITC signal from living cells, PI positive dead cells were gated out and the annexin V-FITC signal was obtained from PI negative forward scattered, cells.
Cells were grown to 60-80% confluence in 60 mm dishes then exposed to (^137Cs) irradiation with a GammaCell 40 Exactor (Nordion international) at doses of 0, 2, 6, 10 or 16 Gy. The media was changed and the cells were processed for surface PS determination at the indicated times. Mice were irradiated at 10 Gy with an Xstrahl D3100 superficial systems (at 100 kV) with 2 cm cone and projected 1 cm deep.
(In general: A flow cytometer gives signals particle by particle.)

The test system of assay [1] is A2058, cfPac-1 and U87MG cell lines. In words: Cell viability (MTT) assay of serially irradiated cells treated with chemotherapeutic drugs. Format: cell-based, human. As to conditions: 5 Gy weekly for multiple weeks, drug 7 days after last irradiation, MTT 72 hr later. As for the experimental part: Non serially-irradiated cells are designated R0. Media was changed immediately after the irradiation and the cells were split every 3-4 days. Treatments were given 4-7 days following the last 5 Gy irradiation, when the surface PS is still elevated. A) Timeline of the treatment regime. B) Surface PS was determined by Annexin V-FITC staining on Day 4 following the last 5 Gy irradiation. Rx; x=15 for A2058 and 10 for cfPac-1 and U87MG. * p<0.05, ** p<0.01 compared to R0. Shown are the mean and S.D. C-E) Cells were serially irradiated with 5 Gy. (top panel, A2058 cells; middle panel, cfPac-1 cells; bottom panel, U87MG cells) C) 7 days later they were exposed to the indicated doses of radiation and cell viability was determined by MTT assay was performed 72 hr. later. Shown is the % of live cells with 100% as the normalized control for each cell line, * p<0.05. ** p<0.01, compared to R0. D) 7 days after the last 5 Gy irradiation, cells were treated with different doses of gemcitabine (GEM) temozolomide (TMZ) or cisplatin and cell viability was determined by MTT assay was performed 72 hr. later. * p<0.05, ** p<0.01, compared to R0 at the same dose of drug. E.) 7 days following the last 5 Gy irradiation, cells were treated with the indicated doses of SapC-DOPS (1 SapC:7 DOPS, Mol:Mol) and cell viability was determined by MTT assay was performed 72 hr. later. […]

Residues, ends and D or L forms follow the SMILES beside them. *: point of attachment. Cbz = O=C(OCc1ccccc1)*; CH2F = FC*

On to `COC(=O)C[C@H](NC(=O)[C@H](C)NC(=O)[C@@H](NC(=O)OCc1ccccc1)C(C)C)C(=O)CF` [Z-VAD fmk] (Cbz-Val-Ala-Asp(OMe)-CH2F), for which the “radiation-induced surface PS elevation (Annexin V binding)” value with cfPac-1 cells was “completely eliminated the radiation-induced surface PS elevation”. Take `N.N.[Cl][Pt][Cl]` [cisplatin]: in assay [1], the “sensitivity of serially irradiated cells to chemotherapeutic drugs (MTT cell viability) compared to R0” value is reported as “more resistant”. As to `Nc1ccn([C@@H]2O[C@H](CO)[C@@H](O)C2(F)F)c(=O)n1` [gemcitabine], in assay [1], the “sensitivity of serially irradiated cells to chemotherapeutic drugs (MTT cell viability) compared to R0” value is on record as “more resistant”.
